# Source: US10412965B2, “Use of the antifungal ilicicolin H in agriculture” (AGROBIOLOGICS, LLC, priority 2015, dated 2019)
# Columns and labels:
# [1] = system: Blumeria graminis f. sp. tritici (Erysiphe graminis); assay: Leaf disk test at different concentrations, wheat; assay type: in vivo; details: preventative, disease control relative to untreated check
# [2] = system: Thanatephorus cucumeris (Rhizoctonia solani); assay: Liquid-culture fungal growth inhibition test; assay type: cell-based
# Pythium dissimile = assay type: cell-based; details: 20 ppm
# Pyrenophora teres = assay: Leaf disk test at different concentrations, barley; assay type: in vivo; details: preventative, disease control relative to untreated check
# Alternaria solani [3] = assay: Leaf disk test at different concentrations, tomato; assay type: in vivo; details: preventative, disease control relative to untreated check
# [4] = system: Monographella nivalis (Microdochium nivale); assay: Liquid-culture fungal growth inhibition test; assay type: cell-based
# Plasmopara viticola = assay: Leaf disk test at different concentrations, grapevine; assay type: in vivo; details: preventative, disease control relative to untreated check
# Phytophthora infestans [5] = assay type: in vivo; details: tomato, preventative, disease control relative to untreated check
# [6] = system: Phaeosphaeria nodorum (Septoria nodorum); assay: Leaf disk test at different concentrations, wheat; assay type: in vivo; details: preventative, disease control relative to untreated check
# Pythium ultimum = assay: Liquid-culture fungal growth inhibition test; assay type: cell-based; details: antifungal activity relative to untreated check, photometric, 2-7 days
# Fusarium culmorum = assay: Liquid-culture fungal growth inhibition test; assay type: cell-based; details: antifungal activity relative to untreated check, photometric, 2-7 days
# Experimental: Suspensions of mycelial fragments or conidia of a fungal species, prepared either freshly from liquid cultures of the fungus or from cryogenic storage, were directly mixed into nutrient broth. DMSO solutions of Ilicicolin H (max. 10 mg/ml) were diluted with 0.025% Tween 20 by a factor of 50, and 10μ L of this solution was pipetted into a microtitre plate (96-well format). The nutrient broth containing the fungal spores/mycelia fragments was then added to give a final concentration of Ilicicolin H. The test plates were incubated in the dark at 24° C. and 96% relative humidity. The inhibition of fungal growth was determined photometrically after 2-7 days, depending on the pathosystem, and percent antifungal activity relative to the untreated check was calculated.
# Alternaria solani [7] = assay type: cell-based; details: 20 ppm
# mice = details: cited from earlier work
# [8] = system: Mycosphaerella arachidis (Cercospora arachidicola); assay: Liquid-culture fungal growth inhibition test; assay type: cell-based
# Puccinia recondita = assay: Leaf disk test at different concentrations, wheat; assay type: in vivo; details: for Leaf-piece test rates (20 ppm), efficacy / Leaf-piece test rates (60 ppm), efficacy / Leaf-piece test rates (200 ppm), efficacy: wheat, disease control relative to untreated check
# Gaeumannomyces graminis = assay: Liquid-culture fungal growth inhibition test; assay type: cell-based
# [9] = system: Glomerella lagenarium (Colletotrichum lagenarium); assay: Liquid-culture fungal growth inhibition test; assay type: cell-based
# Sclerotinia sclerotiorum = assay: Liquid-culture fungal growth inhibition test; assay type: cell-based
# Gibberella zeae = assay type: cell-based; details: 20 ppm
# [10] = system: Botryotinia fuckeliana (Botrytis cinerea); assay: Liquid-culture fungal growth inhibition test; assay type: cell-based
# Phytophthora infestans [11] = assay type: in vivo; details: 200 ppm
# Zymoseptoria tritici [12] = assay type: in vivo; details: 100 ppm
# Zymoseptoria tritici [13] = assay: Liquid-culture fungal growth inhibition test; assay type: cell-based
# Botryotinia fuckeliana = assay type: cell-based; details: 20 ppm
# Uromyces viciae-fabae = assay type: in vivo; details: 100 ppm
# [14] = system: Magnaporthe grisea (Pyricularia oryzae); assay type: in vivo; details: rice, preventative, disease control relative to untreated check
# HeLa cells = details: cited from earlier work
# [15] = 0.2 ppm, antifungal activity relative to untreated check, photometric, 2-7 days
# [16] = 2 ppm, antifungal activity relative to untreated check, photometric, 2-7 days
# [17] = 20 ppm, antifungal activity relative to untreated check, photometric, 2-7 days
smiles,measurement,setting,value
C/C=C/[C@H]1C(C(=O)c2c(O)c(-c3ccc(O)cc3)c[nH]c2=O)C=C(C)[C@H]2CC[C@H](C)C[C@@H]21 (stereo partly shown) [Ilicicolin H],"Leaf-piece test rates (20 ppm), efficacy",[1]; 20 ppm,0%
same,"Leaf-piece test rates (60 ppm), efficacy",[1]; 60 ppm,0%
same,"Leaf-piece test rates (200 ppm), efficacy",[1]; 200 ppm,0%
same,activity in liquid-culture test,[2],demonstrated activity
same,"Liquid-culture test rates (0.2 ppm), efficacy",[2]; [15],0%
same,"Liquid-culture test rates (2 ppm), efficacy",[2]; [16],50%
same,"Liquid-culture test rates (20 ppm), efficacy",[2]; [17],70%
same,Disease control efficacy (average of two repeat experiments),Pythium dissimile,0
same,activity in mycelial growth test,Pythium dissimile,not active
same,"Leaf-piece test rates (20 ppm), efficacy",Pyrenophora teres; 20 ppm,0%
same,"Leaf-piece test rates (60 ppm), efficacy",Pyrenophora teres; 60 ppm,0%
same,"Leaf-piece test rates (200 ppm), efficacy",Pyrenophora teres; 200 ppm,0%
same,"Leaf-piece test rates (20 ppm), efficacy",Alternaria solani [3]; 20 ppm,0%
same,"Leaf-piece test rates (60 ppm), efficacy",Alternaria solani [3]; 60 ppm,0%
same,"Leaf-piece test rates (200 ppm), efficacy",Alternaria solani [3]; 200 ppm,0%
same,activity in liquid-culture test,[4],demonstrated activity
same,"Liquid-culture test rates (0.2 ppm), efficacy",[4]; [15],0%
same,"Liquid-culture test rates (2 ppm), efficacy",[4]; [16],100%
same,"Liquid-culture test rates (20 ppm), efficacy",[4]; [17],100%
same,"Leaf-piece test rates (20 ppm), efficacy",Plasmopara viticola; 20 ppm,0%
same,"Leaf-piece test rates (60 ppm), efficacy",Plasmopara viticola; 60 ppm,0%
same,"Leaf-piece test rates (200 ppm), efficacy",Plasmopara viticola; 200 ppm,0%
same,"Leaf-piece test rates (20 ppm), efficacy",Phytophthora infestans [5]; 20 ppm,0%
same,"Leaf-piece test rates (60 ppm), efficacy",Phytophthora infestans [5]; 60 ppm,0%
same,"Leaf-piece test rates (200 ppm), efficacy",Phytophthora infestans [5]; 200 ppm,0%
same,"Leaf-piece test rates (20 ppm), efficacy",[6]; 20 ppm,0%
same,"Leaf-piece test rates (60 ppm), efficacy",[6]; 60 ppm,0%
same,"Leaf-piece test rates (200 ppm), efficacy",[6]; 200 ppm,0%
same,"Liquid-culture test rates (0.2 ppm), efficacy",Pythium ultimum; 0.2 ppm,0%
same,"Liquid-culture test rates (2 ppm), efficacy",Pythium ultimum; 2 ppm,0%
same,"Liquid-culture test rates (20 ppm), efficacy",Pythium ultimum; 20 ppm,0%
same,"Liquid-culture test rates (0.2 ppm), efficacy",Fusarium culmorum; 0.2 ppm,0%
same,"Liquid-culture test rates (2 ppm), efficacy",Fusarium culmorum; 2 ppm,0%
same,"Liquid-culture test rates (20 ppm), efficacy",Fusarium culmorum; 20 ppm,0%
same,Disease control efficacy (average of two repeat experiments),Alternaria solani [7],0
same,activity in mycelial growth test,Alternaria solani [7],not active
same,acute toxicity,mice,low acute toxicity
same,activity in liquid-culture test,[8],demonstrated activity
same,"Liquid-culture test rates (0.2 ppm), efficacy",[8]; [15],0%
same,"Liquid-culture test rates (2 ppm), efficacy",[8]; [16],100%
same,"Liquid-culture test rates (20 ppm), efficacy",[8]; [17],100%
same,"Leaf-piece test rates (20 ppm), efficacy",Puccinia recondita; curative,0%
same,"Leaf-piece test rates (20 ppm), efficacy",Puccinia recondita; preventative,0%
same,"Leaf-piece test rates (60 ppm), efficacy",Puccinia recondita; curative,0%
same,"Leaf-piece test rates (60 ppm), efficacy",Puccinia recondita; preventative,50%
same,"Leaf-piece test rates (200 ppm), efficacy",Puccinia recondita; curative,0%
same,"Leaf-piece test rates (200 ppm), efficacy",Puccinia recondita; preventative,90%
same,activity in leaf disk test,Puccinia recondita; wheat leaf disks,demonstrated activity
same,activity in liquid-culture test,Gaeumannomyces graminis,demonstrated activity
same,"Liquid-culture test rates (0.2 ppm), efficacy",Gaeumannomyces graminis; [15],0%
same,"Liquid-culture test rates (2 ppm), efficacy",Gaeumannomyces graminis; [16],90%
same,"Liquid-culture test rates (20 ppm), efficacy",Gaeumannomyces graminis; [17],100%
same,activity in liquid-culture test,[9],demonstrated activity
same,"Liquid-culture test rates (0.2 ppm), efficacy",[9]; [15],0%
same,"Liquid-culture test rates (2 ppm), efficacy",[9]; [16],50%
same,"Liquid-culture test rates (20 ppm), efficacy",[9]; [17],100%
same,activity in liquid-culture test,Sclerotinia sclerotiorum,demonstrated activity
same,"Liquid-culture test rates (0.2 ppm), efficacy",Sclerotinia sclerotiorum; [15],0%
same,"Liquid-culture test rates (2 ppm), efficacy",Sclerotinia sclerotiorum; [16],20%
same,"Liquid-culture test rates (20 ppm), efficacy",Sclerotinia sclerotiorum; [17],50%
same,activity in mycelial growth test,Gibberella zeae,not active
same,Disease control efficacy (average of two repeat experiments),"Gibberella zeae; artificial media, visual 3 band score, 4 to 14 days after inoculation",0
same,activity in liquid-culture test,[10],demonstrated activity
same,"Liquid-culture test rates (0.2 ppm), efficacy",[10]; [15],0%
same,"Liquid-culture test rates (2 ppm), efficacy",[10]; [16],70%
same,"Liquid-culture test rates (20 ppm), efficacy",[10]; [17],100%
same,activity in leaf-piece assay,Phytophthora infestans [11]; tomato,active
same,Disease control efficacy (average of two repeat experiments),"Phytophthora infestans [11]; tomato leaf piece, applied prior to inoculation, visual 3 band score",99
same,Disease control efficacy (average of two repeat experiments),Zymoseptoria tritici [12],99
same,activity in leaf-piece assay,Zymoseptoria tritici [12],active
same,activity in liquid-culture test,Zymoseptoria tritici [13],demonstrated activity
same,"Liquid-culture test rates (0.2 ppm), efficacy",Zymoseptoria tritici [13]; [15],90%
same,"Liquid-culture test rates (2 ppm), efficacy",Zymoseptoria tritici [13]; [16],100%
same,"Liquid-culture test rates (20 ppm), efficacy",Zymoseptoria tritici [13]; [17],100%
same,Disease control efficacy (average of two repeat experiments),Botryotinia fuckeliana,99
same,activity in mycelial growth test,Botryotinia fuckeliana,active
same,Disease control efficacy (average of two repeat experiments),Uromyces viciae-fabae,49
same,activity in leaf-piece assay,Uromyces viciae-fabae,active in one rep
same,"Leaf-piece test rates (20 ppm), efficacy",[14]; 20 ppm,0%
same,"Leaf-piece test rates (60 ppm), efficacy",[14]; 60 ppm,0%
same,"Leaf-piece test rates (200 ppm), efficacy",[14]; 200 ppm,0%
same,ED50 (cytotoxicity),HeLa cells,2 µg/mL
